Test results from patent publication US12304890B2, “R-type pyridyloxycarboxylic acid, salt and ester derivative thereof, and preparation method therefor, and herbicidal composition and application thereof” (Qingdao Kingagroot Chemical Compound Co., Ltd., priority 2018, dated 2025).

Key:
Format in all cases: in vivo
Echinochloa crusgalli = assay: Post-emergence test experiment, Echinochloa crusgalli; details: 1000 g a.i./ha, 3 weeks in greenhouse, fresh weight inhibition
Summary of the method: (§1)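 Weed and crop seeds were sown in soil-filled pots, covered with 0.5-2 cm soil and grown in a greenhouse. Plants were sprayed at the 2-3 leaf stage, 2 weeks after sowing. Compounds were in acetone with tween-80 plus methyl oleate emulsible concentrate synergist (1.5 liters per hectare). Fresh weight inhibition was scored after 3 weeks.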

Digitaria sanguinalis = assay: Post-emergence test experiment, Digitaria sanguinalis; details: 1000 g a.i./ha, 3 weeks in greenhouse, fresh weight inhibition
Summary of the method: as §1

[1] = tested on: Monocotyledonous and dicotyledonous weed seeds and main crop seeds; assay: Post-emergence test experiment, other weeds and crops (Table 4, 1000 g a.i./ha); details: 3 weeks in greenhouse, fresh weight inhibition
Summary of the method: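 Weed and crop seeds (wheat, corn, rice, soybean, cotton, oilseed, millet, sorghum) sown in soil pots in a greenhouse and sprayed at 2-3 leaf stage, 2 weeks after sowing. Compound in acetone/tween-80 with methyl oleate concentrate (1.5 L/ha) as synergist. Effect recorded as fresh-weight growth inhibition rate.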

Structure (SMILES) | Activity level (growth inhibition rate), Echinochloa crusgalli (Echinochloa crusgalli) | Activity level (growth inhibition rate), Digitaria sanguinalis (Digitaria sanguinalis) | Activity level (growth inhibition rate), Abutilon theophrasti Medic. [1] | Activity level (growth inhibition rate), Galium aparine [1] | Activity level (growth inhibition rate), Monochoria Vaginalis [1]
C[C@@H](Oc1nc(F)c(Cl)c(N)c1Cl)C(=O)SCc1ccc(C#N)cc1 [Compound 2-338] | 5 (Level 5: the growth inhibition rate is greater than 85%) | 5 (Level 5: the growth inhibition rate is greater than 85%) | 5 (Level 5: the growth inhibition rate is greater than 85%) | 5 (Level 5: the growth inhibition rate is greater than 85%) | 5 (Level 5: the growth inhibition rate is greater than 85%)
CC(Oc1nc(F)c(Cl)c(N)c1Cl)C(=O)O.CN(C)CCO (stereo not drawn) [Compound 2-14] | 5 (Level 5: the growth inhibition rate is greater than 85%) | 5 (Level 5: the growth inhibition rate is greater than 85%) | 5 (Level 5: the growth inhibition rate is greater than 85%) | 5 (Level 5: the growth inhibition rate is greater than 85%) | 5 (Level 5: the growth inhibition rate is greater than 85%)
CC(N)CN.CC(Oc1nc(F)c(Cl)c(N)c1Cl)C(=O)S (stereo not drawn) [Compound 2-17] | 5 (Level 5: the growth inhibition rate is greater than 85%) | 5 (Level 5: the growth inhibition rate is greater than 85%) | 5 (Level 5: the growth inhibition rate is greater than 85%) | 5 (Level 5: the growth inhibition rate is greater than 85%) | 5 (Level 5: the growth inhibition rate is greater than 85%)
CC(C)C(C)OC(=O)[C@@H](C)Oc1nc(F)c(Cl)c(N)c1Cl (stereo partly drawn) [Compound 2-95] | 5 (Level 5: the growth inhibition rate is greater than 85%) | 5 (Level 5: the growth inhibition rate is greater than 85%) | 5 (Level 5: the growth inhibition rate is greater than 85%) | 5 (Level 5: the growth inhibition rate is greater than 85%) | 5 (Level 5: the growth inhibition rate is greater than 85%)
CCCCCCCSC(=O)[C@@H](C)Oc1nc(F)c(Cl)c(N)c1Cl [Compound 2-122] | 5 (Level 5: the growth inhibition rate is greater than 85%) | 5 (Level 5: the growth inhibition rate is greater than 85%) | 5 (Level 5: the growth inhibition rate is greater than 85%) | 5 (Level 5: the growth inhibition rate is greater than 85%) | 5 (Level 5: the growth inhibition rate is greater than 85%)
CCCCC(CC)CSC(=O)[C@@H](C)Oc1nc(F)c(Cl)c(N)c1Cl (stereo partly drawn) [Compound 2-158] | 5 (Level 5: the growth inhibition rate is greater than 85%) | 5 (Level 5: the growth inhibition rate is greater than 85%) | 5 (Level 5: the growth inhibition rate is greater than 85%) | 5 (Level 5: the growth inhibition rate is greater than 85%) | 5 (Level 5: the growth inhibition rate is greater than 85%)
C[C@@H](Oc1nc(F)c(Cl)c(N)c1Cl)C(=O)OCc1ccnn1C [Compound 2-353] | 5 (Level 5: the growth inhibition rate is greater than 85%) | 5 (Level 5: the growth inhibition rate is greater than 85%) | 5 (Level 5: the growth inhibition rate is greater than 85%) | 5 (Level 5: the growth inhibition rate is greater than 85%) | 5 (Level 5: the growth inhibition rate is greater than 85%)
CCCCCCCCCCCCSC(=O)[C@@H](C)Oc1nc(F)c(Cl)c(N)c1Cl [Compound 2-236] | 5 (Level 5: the growth inhibition rate is greater than 85%) | 5 (Level 5: the growth inhibition rate is greater than 85%) | 5 (Level 5: the growth inhibition rate is greater than 85%) | 5 (Level 5: the growth inhibition rate is greater than 85%) | 5 (Level 5: the growth inhibition rate is greater than 85%)
CCCCCOC(=O)[C@@H](C)Oc1nc(F)c(Cl)c(N)c1Cl [Compound 2-85] | 5 (Level 5: the growth inhibition rate is greater than 85%) | 5 (Level 5: the growth inhibition rate is greater than 85%) | 5 (Level 5: the growth inhibition rate is greater than 85%) | 5 (Level 5: the growth inhibition rate is greater than 85%) | 5 (Level 5: the growth inhibition rate is greater than 85%)
CCC(C)(C)OC(=O)C(C)Oc1nc(F)c(Cl)c(N)c1Cl (stereo not drawn) [Compound 2-99] | 5 (Level 5: the growth inhibition rate is greater than 85%) | 5 (Level 5: the growth inhibition rate is greater than 85%) | 5 (Level 5: the growth inhibition rate is greater than 85%) | 5 (Level 5: the growth inhibition rate is greater than 85%) | 5 (Level 5: the growth inhibition rate is greater than 85%)
CCCCCCC(C)OC(=O)[C@@H](C)Oc1nc(F)c(Cl)c(N)c1Cl (stereo partly drawn) [Compound 2-163] | 5 (Level 5: the growth inhibition rate is greater than 85%) | 5 (Level 5: the growth inhibition rate is greater than 85%) | 5 (Level 5: the growth inhibition rate is greater than 85%) | 5 (Level 5: the growth inhibition rate is greater than 85%) | 5 (Level 5: the growth inhibition rate is greater than 85%)
CCC(C)SC(=O)[C@@H](C)Oc1nc(F)c(Cl)c(N)c1Cl (stereo partly drawn) [Compound 2-82] | 5 (Level 5: the growth inhibition rate is greater than 85%) | 5 (Level 5: the growth inhibition rate is greater than 85%) | 5 (Level 5: the growth inhibition rate is greater than 85%) | 5 (Level 5: the growth inhibition rate is greater than 85%) | 5 (Level 5: the growth inhibition rate is greater than 85%)
